Several values for one entry are separate records, joined by “and”; a condition that tells them apart may be missing. Equal entries are not always repeated.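 96-well plates; 48 h exposure; 5 concentrations. Endpoints by linear interpolation between flanking doses. Not reached: highest tested concentration assigned. At the GI50, growth is halved. TGI marks complete inhibition of growth.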 A value given as a limit tells only on which side of the number the result lay.

The results in this text go back to PubChem BioAssay (NCI).

Among the test systems are COLO 205 colon; HOP-62 NSCLC; M14 melanoma; MOLT-4 leukemia; OVCAR-3 ovarian; RXF 393 renal; SF-268 CNS; SF-295 CNS; SW-620 colon; T-47D breast.
Common to all, as to assay: growth of human tumour cells (NCI), 48 h

As for `CC(=O)N=S(NC(=O)c1ccc(C)cc1)C(Cl)(Cl)Cl` (configuration not stated), the TGI with COLO 205 colon is 45.3 µM; in the experiment with HOP-62 NSCLC, above 100 µM; in the experiment on M14 melanoma, 31.8 µM; with MOLT-4 leukemia, 83.8 µM; with OVCAR-3 ovarian, 52 µM; in the experiment on RXF 393 renal it was above 100 µM. Further, the TGI in the experiment with SF-268 CNS is above 100 µM; in the experiment on SF-295 CNS, above 100 µM; in the experiment with SW-620 colon, 36.3 µM; with T-47D breast it was above 100 µM.
Regarding `Cc1ccc2c(C(C[N+](=O)[O-])c3ccco3)c(-c3ccccc3)[nH]c2c1` (configuration not stated), the GI50 with COLO 205 colon was 31.7 µM; with HOP-62 NSCLC it was 16 µM; with M14 melanoma, 12.2 µM; in the experiment on MOLT-4 leukemia, 30.7 µM; in the experiment with OVCAR-3 ovarian, 22.8 µM; with RXF 393 renal, 32.2 µM. Also, the GI50 in the experiment with SF-268 CNS was above 100 µM; in the experiment with SF-295 CNS, 21.9 µM; in the experiment with SW-620 colon, 11.4 µM; in the experiment with T-47D breast it was 23 µM. Further, the TGI in the experiment with COLO 205 colon, with HOP-62 NSCLC, in the experiment on M14 melanoma, in the experiment on MOLT-4 leukemia, in the experiment on OVCAR-3 ovarian and in the experiment on RXF 393 renal was above 100 µM each time. Moreover, the TGI with SF-268 CNS, in the experiment with SF-295 CNS, in the experiment with SW-620 colon and in the experiment with T-47D breast was above 100 µM throughout.
As to `Cc1ccc(-c2cc(C(Cl)Cl)on2)cc1`, the GI50 in the experiment with COLO 205 colon was 35.4 µM; in the experiment on HOP-62 NSCLC, 95.5 µM; in the experiment with M14 melanoma it was 74.1 µM; in the experiment with MOLT-4 leukemia it was 26.8 µM; in the experiment on OVCAR-3 ovarian, 51.8 µM; with RXF 393 renal, above 100 µM. Moreover, the GI50 with SF-268 CNS was above 100 µM; in the experiment with SF-295 CNS it was 60 µM; in the experiment on SW-620 colon, 67.5 µM; with T-47D breast, 35.3 µM. The TGI in the experiment with COLO 205 colon, with HOP-62 NSCLC, in the experiment on M14 melanoma, in the experiment with MOLT-4 leukemia, in the experiment on OVCAR-3 ovarian and with RXF 393 renal was above 100 µM each time. The TGI in the experiment with SF-268 CNS, in the experiment with SF-295 CNS, in the experiment on SW-620 colon and in the experiment on T-47D breast was above 100 µM each time.
With `CCCCCCCCCCCCNC(=O)[C@H]1CSC(c2ccsc2)N1` (some centres not stated), the GI50 is 7.95 µM with COLO 205 colon; 0.873 µM in the experiment with HOP-62 NSCLC; 0.855 µM in the experiment on M14 melanoma; 0.895 µM in the experiment on MOLT-4 leukemia; 0.995 µM in the experiment with OVCAR-3 ovarian; 0.96 µM in the experiment on RXF 393 renal. Besides, the GI50 in the experiment with SF-268 CNS was 0.613 µM; in the experiment on SF-295 CNS, 0.926 µM; in the experiment on SW-620 colon it was 0.969 µM; in the experiment on T-47D breast it was 0.976 µM. Also, the TGI came to 15.9 µM with COLO 205 colon; 1.62 µM in the experiment on HOP-62 NSCLC; 1.63 µM with M14 melanoma; 1.84 µM in the experiment on MOLT-4 leukemia; 1.81 µM in the experiment with OVCAR-3 ovarian; 1.69 µM with RXF 393 renal. Also, the TGI in the experiment on SF-268 CNS turned out to be 1.45 µM; with SF-295 CNS, 1.68 µM; with SW-620 colon it was 1.85 µM; with T-47D breast, 2.02 µM.
Take `NC1(C(=O)O)CSSC1`: the GI50 was 11.8 µM with COLO 205 colon; 2.92 µM in the experiment on HOP-62 NSCLC; 3.21 µM in the experiment on M14 melanoma; 5.61 µM in the experiment on MOLT-4 leukemia; 4.75 µM in the experiment with OVCAR-3 ovarian; 3.13 µM in the experiment on RXF 393 renal. In addition, the GI50 in the experiment with SF-268 CNS was 7.6 µM; with SF-295 CNS, 2.35 µM; with SW-620 colon, 10.4 µM; in the experiment on T-47D breast, 32.1 µM. Moreover, the TGI was 27.1 µM in the experiment with COLO 205 colon; 9.83 µM with HOP-62 NSCLC; 11.8 µM in the experiment on M14 melanoma; above 100 µM in the experiment on MOLT-4 leukemia; 59.3 µM in the experiment on OVCAR-3 ovarian; 11.1 µM with RXF 393 renal. Further, the TGI was above 100 µM with SF-268 CNS, 8.25 µM with SF-295 CNS, above 100 µM with SW-620 colon and above 100 µM in the experiment with T-47D breast.
For `CC(=O)Nc1ccc2c(c1)CN1C(=O)c3ccccc3C1=N2`, the GI50 in the experiment on COLO 205 colon, with HOP-62 NSCLC, in the experiment with M14 melanoma, in the experiment with MOLT-4 leukemia, with OVCAR-3 ovarian and in the experiment with RXF 393 renal was above 100 µM each time. In addition, the GI50 with SF-268 CNS, with SF-295 CNS, in the experiment on SW-620 colon and in the experiment on T-47D breast was above 100 µM each time. Further, the TGI in the experiment on COLO 205 colon, in the experiment on HOP-62 NSCLC, in the experiment with M14 melanoma, with MOLT-4 leukemia, in the experiment on OVCAR-3 ovarian and in the experiment with RXF 393 renal was above 100 µM throughout. Moreover, the TGI in the experiment on SF-268 CNS, in the experiment with SF-295 CNS, with SW-620 colon and with T-47D breast was above 100 µM each time.
Take `COc1ccc(-c2cn(-c3cc(OC)c(OC)c(OC)c3)c(=O)n2-c2ccccc2)cc1`: the GI50 was above 100 µM with COLO 205 colon; 66.2 µM in the experiment with HOP-62 NSCLC; above 100 µM with M14 melanoma; above 100 µM with MOLT-4 leukemia; 43.1 µM in the experiment with OVCAR-3 ovarian; 45.4 µM in the experiment on RXF 393 renal. In addition, the GI50 in the experiment with SF-268 CNS is above 100 µM; in the experiment on SF-295 CNS, above 100 µM; with SW-620 colon, above 100 µM; in the experiment on T-47D breast it was 27.3 µM. Moreover, the TGI with COLO 205 colon, in the experiment on HOP-62 NSCLC, in the experiment on M14 melanoma, in the experiment on MOLT-4 leukemia, in the experiment on OVCAR-3 ovarian and in the experiment on RXF 393 renal was above 100 µM throughout. For the same compound, the TGI in the experiment on SF-268 CNS, in the experiment on SF-295 CNS, in the experiment with SW-620 colon and in the experiment with T-47D breast was above 100 µM each time.
Consider `O=C1c2c(O)ccc(O)c2C(=O)c2c(NCCNCCO)ccc(NCCNCCO)c21`, for which the TGI with COLO 205 colon is 1.23 µM and 0.769 µM and 1.16 µM; in the experiment on HOP-62 NSCLC, 0.122 µM and 0.0851 µM and 0.204 µM; in the experiment on M14 melanoma, 1.77 µM and 0.809 µM and 2.11 µM; with MOLT-4 leukemia it was 0.235 µM and 0.339 µM; with OVCAR-3 ovarian, 1.87 µM and 1.47 µM and 2.13 µM; in the experiment on RXF 393 renal, 0.307 µM and 0.368 µM and 0.493 µM. Also, the TGI with SF-268 CNS was 0.32 µM and 0.696 µM and 0.845 µM; with SF-295 CNS, 0.321 µM and 0.878 µM and 0.526 µM; with SW-620 colon, 1.91 µM and 1.62 µM and 1.77 µM; in the experiment with T-47D breast, 1.05 µM and 0.652 µM and 1.5 µM. Besides, the GI50 in the experiment on MOLT-4 leukemia is < 0.01 µM and < 0.005 µM and 0.00476 µM; in the experiment with OVCAR-3 ovarian, 0.483 µM.
